Data reported in patent publication US20250170258A1, “DOSAGE REGIMEN” (priority 2022, published 2025).

Test system: pancreatic cancer PAXF 1657 patient-derived xenograft
Assay: pancreatic cancer PAXF 1657 patient-derived xenograft model
Assay type: in vivo
Details: PAXF 1657 PDX, tested alone (single agent)
Method: Gemcitabine is a nucleoside metabolic inhibitor. It inhibits DNA synthesis by inhibiting the ribonucleotide reductase, cell cycle-specific for the S-phase (also blocks cellular progression at G1/S-phase). It has been used as monotherapy or combination chemotherapy to treat various cancers. […] ADCT-601 and gemcitabine were tested either alone or in combination in the pancreatic cancer PAXF 1657 patient-derived xenograft model.

Nc1ccn([C@@H]2O[C@H](CO)[C@@H](O)C2(F)F)c(=O)n1 [gemcitabine]
anti-tumour activity: limited anti-tumour activity
